Test: Safety (adverse events, NCI CTCAE v4.0), dose-escalation phase
[1] = dose-escalation QD × 5dQW 7–13 mg
[2] = dose-escalation Total (n = 116)

Experimental: Patients who received ≥1 dose of sapanisertib were included in the safety population. […] Adverse events (AEs) were assessed using the National Cancer Institute Common Terminology Criteria for Adverse Events, v4.0. Patients were provided with a home blood-glucose meter to monitor their fasting predose blood-glucose measurements to assess hyperglycaemia as an on-target AE and PD marker.

CC(C)n1nc(-c2ccc3oc(N)nc3c2)c2c(N)ncnc21 [Sapanisertib]
Fatigue, treatment-related grade ≥3 AE [1]: 2 (9) n (%)
Headache, treatment-related AE [1]: 1 (5) n (%)
Hypercholesterolemia, treatment-related AE [1]: 1 (5) n (%)
Hyperglycaemia, treatment-related AE [1]: 11 (50) n (%)
Hyperglycaemia, treatment-related grade ≥3 AE [1]: 1 (5) n (%)
Hypophosphatemia, treatment-related AE [1]: 2 (9) n (%)
Hypophosphatemia, treatment-related grade ≥3 AE [1]: 0 (0) n (%)
Lymphopenia, treatment-related grade ≥3 AE [1]: 0 (0) n (%)
Nausea, treatment-related AE [1]: 13 (59) n (%)
Nausea, treatment-related grade ≥3 AE [1]: 1 (5) n (%)
On-study deaths [1]: 0 n (%)
Pruritus generalised, treatment-related AE [1]: 1 (5) n (%)
Pruritus generalised, treatment-related grade ≥3 AE [1]: 0 (0) n (%)
Pruritus, treatment-related AE [1]: 3 (14) n (%)
Rash maculo-papular, treatment-related AE [1]: 2 (9) n (%)
Rash maculo-papular, treatment-related grade ≥3 AE [1]: 1 (5) n (%)
Rash, treatment-related AE [1]: 3 (14) n (%)
Rash, treatment-related grade ≥3 AE [1]: 0 (0) n (%)
Stomatitis (includes oropharyngeal pain and mucosal inflammation), treatment-related AE [1]: 13 (59) n (%)
Stomatitis, treatment-related grade ≥3 AE [1]: 3 (14) n (%)
Thrombocytopenia, treatment-related grade ≥3 AE [1]: 0 (0) n (%)
Vomiting, treatment-related AE [1]: 10 (45) n (%)
Weight decreased, treatment-related AE [1]: 2 (9) n (%)
Acute kidney injury, treatment-related AE (dose-escalation QW 7–40 mg): 0 (0) n (%)
Anaemia, treatment-related AE (dose-escalation QW 7–40 mg): 1 (3) n (%)
Any AE (dose-escalation QW 7–40 mg): 30 (100) n (%)
Any AE resulting in dose modification/interruption (dose-escalation QW 7–40 mg): 13 (43) n (%)
Any AE resulting in treatment discontinuation (dose-escalation QW 7–40 mg): 4 (13) n (%)
Any SAE (dose-escalation QW 7–40 mg): 10 (33) n (%)
Any grade ≥3 AE (dose-escalation QW 7–40 mg): 18 (60) n (%)
Any treatment-related AE (dose-escalation QW 7–40 mg): 28 (93) n (%)
Any treatment-related SAE (dose-escalation QW 7–40 mg): 0 n (%)
Any treatment-related grade ≥3 AE (dose-escalation QW 7–40 mg): 8 (27) n (%)
Asthenia, treatment-related AE (dose-escalation QW 7–40 mg): 12 (40) n (%)
Asthenia, treatment-related grade ≥3 AE (dose-escalation QW 7–40 mg): 1 (3) n (%)
Blood creatinine increased, treatment-related AE (dose-escalation QW 7–40 mg): 3 (10) n (%)
Decreased appetite, treatment-related AE (dose-escalation QW 7–40 mg): 8 (27) n (%)
Dehydration, treatment-related AE (dose-escalation QW 7–40 mg): 1 (3) n (%)
Dehydration, treatment-related grade ≥3 AE (dose-escalation QW 7–40 mg): 0 (0) n (%)
Diarrhoea, treatment-related AE (dose-escalation QW 7–40 mg): 9 (30) n (%)
Diarrhoea, treatment-related grade ≥3 AE (dose-escalation QW 7–40 mg): 1 (3) n (%)
Dry mouth, treatment-related AE (dose-escalation QW 7–40 mg): 3 (10) n (%)
Dysgeusia, treatment-related AE (dose-escalation QW 7–40 mg): 3 (10) n (%)
Dyspepsia, treatment-related AE (dose-escalation QW 7–40 mg): 1 (3) n (%)
Fatigue, treatment-related AE (dose-escalation QW 7–40 mg): 8 (27) n (%)
Fatigue, treatment-related grade ≥3 AE (dose-escalation QW 7–40 mg): 2 (7) n (%)
Headache, treatment-related AE (dose-escalation QW 7–40 mg): 2 (7) n (%)
Hypercholesterolemia, treatment-related AE (dose-escalation QW 7–40 mg): 1 (3) n (%)
Hyperglycaemia, treatment-related AE (dose-escalation QW 7–40 mg): 17 (57) n (%)
Hyperglycaemia, treatment-related grade ≥3 AE (dose-escalation QW 7–40 mg): 2 (7) n (%)
Hypophosphatemia, treatment-related AE (dose-escalation QW 7–40 mg): 0 (0) n (%)
Hypophosphatemia, treatment-related grade ≥3 AE (dose-escalation QW 7–40 mg): 0 (0) n (%)
Lymphopenia, treatment-related grade ≥3 AE (dose-escalation QW 7–40 mg): 1 (3) n (%)
Nausea, treatment-related AE (dose-escalation QW 7–40 mg): 22 (73) n (%)
Nausea, treatment-related grade ≥3 AE (dose-escalation QW 7–40 mg): 0 (0) n (%)
On-study deaths (dose-escalation QW 7–40 mg): 1 (3) n (%)
Pruritus generalised, treatment-related AE (dose-escalation QW 7–40 mg): 0 (0) n (%)
Pruritus generalised, treatment-related grade ≥3 AE (dose-escalation QW 7–40 mg): 0 (0) n (%)
Pruritus, treatment-related AE (dose-escalation QW 7–40 mg): 2 (7) n (%)
Rash maculo-papular, treatment-related AE (dose-escalation QW 7–40 mg): 0 (0) n (%)
Rash maculo-papular, treatment-related grade ≥3 AE (dose-escalation QW 7–40 mg): 0 (0) n (%)
Rash, treatment-related AE (dose-escalation QW 7–40 mg): 2 (7) n (%)
Rash, treatment-related grade ≥3 AE (dose-escalation QW 7–40 mg): 0 (0) n (%)
Stomatitis (includes oropharyngeal pain and mucosal inflammation), treatment-related AE (dose-escalation QW 7–40 mg): 9 (30) n (%)
Stomatitis, treatment-related grade ≥3 AE (dose-escalation QW 7–40 mg): 0 (0) n (%)
Thrombocytopenia, treatment-related grade ≥3 AE (dose-escalation QW 7–40 mg): 0 (0) n (%)
Vomiting, treatment-related AE (dose-escalation QW 7–40 mg): 17 (57) n (%)
Weight decreased, treatment-related AE (dose-escalation QW 7–40 mg): 2 (7) n (%)
Acute kidney injury, treatment-related AE [2]: 1 (1) n (%)
Anaemia, treatment-related AE [2]: 5 (4) n (%)
Any AE [2]: 116 (100) n (%)
Any AE resulting in dose modification/interruption [2]: 68 (59) n (%)
Any AE resulting in treatment discontinuation [2]: 28 (24) n (%)
Any SAE [2]: 50 (43) n (%)
Any grade ≥3 AE [2]: 76 (66) n (%)
Any treatment-related AE [2]: 112 (97) n (%)
Any treatment-related SAE [2]: 17 (15) n (%)
Any treatment-related grade ≥3 AE [2]: 49 (42) n (%)
Asthenia, treatment-related AE [2]: 37 (32) n (%)
Asthenia, treatment-related grade ≥3 AE [2]: 9 (8) n (%)
Blood creatinine increased, treatment-related AE [2]: 12 (10) n (%)
Decreased appetite, treatment-related AE [2]: 43 (37) n (%)
Dehydration, treatment-related AE [2]: 5 (4) n (%)
Dehydration, treatment-related grade ≥3 AE [2]: 1 (1) n (%)
Diarrhoea, treatment-related AE [2]: 41 (35) n (%)
Diarrhoea, treatment-related grade ≥3 AE [2]: 2 (2) n (%)
Dry mouth, treatment-related AE [2]: 12 (10) n (%)
Dysgeusia, treatment-related AE [2]: 19 (16) n (%)
Dyspepsia, treatment-related AE [2]: 3 (3) n (%)
Fatigue, treatment-related AE [2]: 35 (30) n (%)
Fatigue, treatment-related grade ≥3 AE [2]: 4 (3) n (%)
Headache, treatment-related AE [2]: 6 (5) n (%)
Hypercholesterolemia, treatment-related AE [2]: 11 (9) n (%)
Hyperglycaemia, treatment-related AE [2]: 75 (65) n (%)
Hyperglycaemia, treatment-related grade ≥3 AE [2]: 16 (14) n (%)
Hypophosphatemia, treatment-related AE [2]: 7 (6) n (%)
Hypophosphatemia, treatment-related grade ≥3 AE [2]: 3 (3) n (%)
Lymphopenia, treatment-related grade ≥3 AE [2]: 5 (4) n (%)
Nausea, treatment-related AE [2]: 71 (61) n (%)
Nausea, treatment-related grade ≥3 AE [2]: 3 (3) n (%)
On-study deaths [2]: 4 (3) n (%)
Pruritus generalised, treatment-related AE [2]: 15 (13) n (%)
Pruritus generalised, treatment-related grade ≥3 AE [2]: 3 (3) n (%)
Pruritus, treatment-related AE [2]: 8 (7) n (%)
Rash maculo-papular, treatment-related AE [2]: 6 (5) n (%)
Rash maculo-papular, treatment-related grade ≥3 AE [2]: 3 (3) n (%)
Rash, treatment-related AE [2]: 20 (17) n (%)
Rash, treatment-related grade ≥3 AE [2]: 2 (2) n (%)
Stomatitis (includes oropharyngeal pain and mucosal inflammation), treatment-related AE [2]: 56 (48) n (%)
Stomatitis, treatment-related grade ≥3 AE [2]: 8 (7) n (%)
Thrombocytopenia, treatment-related grade ≥3 AE [2]: 2 (2) n (%)
Vomiting, treatment-related AE [2]: 53 (46) n (%)
Weight decreased, treatment-related AE [2]: 7 (6) n (%)

— PMC7686313, “Phase 1 study of mTORC1/2 inhibitor sapanisertib (TAK-228) in advanced solid tumours, with an expansion phase in renal, endometrial or bladder cancer” (British Journal of Cancer, 2020)
